This is an account of results in US6479531B1, “Gastrin and cholecystokinin receptor ligands” (James Black Foundation Limited, priority 1998, dated 2002).

Molecules are shown by their SMILES.

Experiment [1] concerns the target T1, gastrin receptor (Rattus norvegicus, UniProt P30553).
T1 construct: The stomach was excised and flushed with ca. 1 ml of unbuffered physiological saline solution; from tissue; host or cells: isolated whole stomach of immature rats (ca. 21 days old)
T1 sequence (P30553 1-452): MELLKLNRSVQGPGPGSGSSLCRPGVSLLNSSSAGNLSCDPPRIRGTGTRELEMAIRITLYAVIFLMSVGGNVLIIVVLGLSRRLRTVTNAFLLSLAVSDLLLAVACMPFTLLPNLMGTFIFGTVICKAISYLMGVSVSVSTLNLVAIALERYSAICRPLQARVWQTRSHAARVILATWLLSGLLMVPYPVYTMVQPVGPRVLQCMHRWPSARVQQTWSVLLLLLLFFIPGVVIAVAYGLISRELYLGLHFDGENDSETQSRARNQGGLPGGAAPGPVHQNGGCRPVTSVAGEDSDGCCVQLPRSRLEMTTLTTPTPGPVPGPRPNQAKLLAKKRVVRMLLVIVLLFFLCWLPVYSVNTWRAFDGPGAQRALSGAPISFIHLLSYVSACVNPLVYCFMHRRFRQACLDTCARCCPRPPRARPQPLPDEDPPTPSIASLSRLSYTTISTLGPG
Put plainly: gastrin antagonist activity in immature rat stomach assay (pentagastrin dose-response, acid secretion). Conditions: isolated immature rat stomach, cumulative pentagastrin dose-response curves, read-out: Gastrin pKb (converted). The procedure, abridged:
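Isolated, lumen-perfused stomach from immature rats (33-50 g, ca. 21 days) in a 37° organ bath with 3×10^−8 M 5-methylfurmethide, gassed 95% O2/5% CO2. Compound added serosally after 120 min stabilisation; cumulative pentagastrin dose-response curves begun 60 min later, acid secretion followed by perfusate pH.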

The target of experiment [2] is T2, CCKB receptor (Mus musculus, UniProt P56481).
T2 construct: The whole brains from male mice (CD1 22-25 g; Charles River) were removed; from tissue; host or cells: cerebral cortex membranes of male CD1 mice
T2 sequence (P56481 1-453): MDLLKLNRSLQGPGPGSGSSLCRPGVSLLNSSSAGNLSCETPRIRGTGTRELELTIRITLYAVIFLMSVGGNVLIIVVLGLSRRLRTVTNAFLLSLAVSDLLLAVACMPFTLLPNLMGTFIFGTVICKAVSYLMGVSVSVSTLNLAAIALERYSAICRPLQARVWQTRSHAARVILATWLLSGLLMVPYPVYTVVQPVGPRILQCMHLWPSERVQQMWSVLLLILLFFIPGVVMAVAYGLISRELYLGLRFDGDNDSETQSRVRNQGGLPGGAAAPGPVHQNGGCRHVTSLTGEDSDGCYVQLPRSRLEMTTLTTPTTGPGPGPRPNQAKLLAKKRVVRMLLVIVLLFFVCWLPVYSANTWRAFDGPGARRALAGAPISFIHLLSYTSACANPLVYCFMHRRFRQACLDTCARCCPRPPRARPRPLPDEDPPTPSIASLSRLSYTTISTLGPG
Put plainly: CCKB receptor radioligand binding assay in mouse cortical membranes. Particulars: [125I]-CCK8(S) 200 pM, 150 min at 21±3°, read-out: CCKB pKi (converted). The procedure, abridged: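 Bound radioactivity was gamma-counted after rapid GF/B filtration and cold 50 mM Tris-HCl (pH 7.4) washes. The tissue was cerebral cortex from male CD1 mice, prepared as twice-centrifuged membranes in pH 7.2 HEPES/NaCl/KCl/MgCl2/EDTA buffer with bacitracin at 20 mg/ml original wet weight.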

In the case of `Cc1ccccc1-c1nc(CCC23CC4CC(CC(C4)C2)C3)c(C(=O)Nc2ccc(N(C)C)c(C(=O)O)c2)[nH]1` [Example 242, 5-{[5-(2-Adamantan-1-yl-ethyl)-2-o-tolyl-1H-imidazole-4-carbonyl]-amino}-2-dimethylamino-benzoic Acid], the Kb in experiment [1] is 741 nM. The Ki in experiment [2] is 324 nM.

On to `CC1(c2nc(C(=O)Nc3cccc(C(=O)O)c3)c(CCC34CC5CC(CC(C5)C3)C4)[nH]2)CCCCC1` [Example 199, 3-{[5-(2-Adamantan-1-yl-ethyl)-2-(1-methyl-cyclohexyl)-1H-imidazole-4-carbonyl]-amino}-benzoic Acid], for which, in experiment [1], the Kb is 1.62 nM. Further, the Ki in experiment [2] is 17.8 nM.

Regarding `Cc1ccc(NC(=O)c2nc(-c3ccccc3C)n(C)c2CCC23CC4CC(CC(C4)C2)C3)cc1C(=O)O` [Example 161, 5-{[5-(2-Adamantan-1-yl-ethyl)-1-methyl-2-o-tolyl-1H-imidazole-4-carbonyl]-amino}-2-methyl-benzoic Acid], the Kb in experiment [1] is 81.3 nM. In addition, the Ki in experiment [2] is 38.9 nM.

`Cc1c(NC(=O)c2nc(C3CCCCC3)[nH]c2CCC23CC4CC(CC(C4)C2)C3)cccc1C(=O)O` [Example 253, 3-{[5-(2-Adamantan-1-yl-ethyl)-2-cyclohexyl-1H-imidazole-4-carbonyl]-amino}-2-methyl-benzoic Acid]: in experiment [1], the Kb is 64.6 nM. Also, the Ki in experiment [2] was 55 nM.

Regarding `Cc1ccc(NC(=O)c2nc(-c3ccccc3C)[nH]c2CCC23CC4CC(CC(C4)C2)C3)cc1C(=O)O` [Example 106, 5-{[5-(2-Adamantan-1-yl-ethyl)-2-o-tolyl-1H-imidazole-4-carbonyl]-amino}-2-methyl-benzoic Acid], the Kb in experiment [1] is 6.31 nM. The Ki in experiment [2] is 5.89 nM.

`Cc1ccc(C)c(-c2nc(C(=O)Nc3cccc(C(=O)O)c3)c(CCC34CC5CC(CC(C5)C3)C4)[nH]2)c1` [Example 66, 3-{[5-(2-Adamantan-1-yl-ethyl)-2-(2,5-dimethyl-phenyl)-1H-imidazole-4-carbonyl]-amino}-benzoic Acid]: the Kb in experiment [1] was 55 nM. For the same compound, the Ki in experiment [2] is 200 nM.

In the case of `CCCCC(CC)c1nc(C(=O)Nc2cccc(C(=O)O)c2)c(CCC23CC4CC(CC(C4)C2)C3)[nH]1` (stereo not shown) [Example 124, 3-{[5-(2-Adamantan-1-yl-ethyl)-2-(1-ethyl-pentyl)-1H-imidazole-4-carbonyl]-amino}-benzoic Acid], the Kb in experiment [1] was 15.5 nM. In experiment [2], the Ki is 63.1 nM.

Regarding `O=C(O)c1cccc(NC(=O)c2nc(C3CCCCC3)[nH]c2CCC2CCCCCC2)c1` [Example 166, 3-{[5-(2-Cycloheptyl-ethyl)-2-cyclohexyl-1H-imidazole-4-carbonyl]-amino}-benzoic Acid], in experiment [1], the Kb is 12.9 nM. Further, in experiment [2], the Ki is 135 nM.

For `Cc1ccc(NC(=O)c2nc(C3CC4CCC3C4)[nH]c2CCC23CC4CC(CC(C4)C2)C3)cc1C(=O)O` (racemic) [Example 209, (±)-endo-5-{[5-(2-Adamantan-1-yl-ethyl)-2-bicyclo[2.2.1]hept-2-yl-1H-imidazole-4-carbonyl]-amino}-2-methyl-benzoic Acid], in experiment [1], the Kb was 1.1 nM. In experiment [2], the Ki was 2.09 nM.

On to `CCC(CC)c1nc(C(=O)Nc2ccc(C)c(C(=O)O)c2)c(CCC23CC4CC(CC(C4)C2)C3)[nH]1` [Example 113, 5{-[5-(2-Adamantan-1-yl-ethyl)-2-(1-ethyl-propyl)-1H-imidazole-4-carbonyl]-amino}-2-methyl-benzoic Acid], for which the Kb in experiment [1] is 5.5 nM. The Ki in experiment [2] was 7.24 nM.

For `O=C(O)c1cc(NC(=O)c2nc(C3CCCCC3)[nH]c2CCC23CC4CC(CC(C4)C2)C3)cc(C(=O)O)c1` [Example 129, 5-{[5-(2-Adamantan-1-yl-ethyl)-2-cyclohexyl-1H-imidazole-4-carbonyl]-amino}-isophthalic Acid], in experiment [1], the Kb was 380 nM. Moreover, the Ki in experiment [2] is 219 nM.

For `CC1=C(Cc2nc(C(=O)Nc3cccc(C(=O)O)c3)c(CCC34CC5CC(CC(C5)C3)C4)[nH]2)C(C)(C)CCC1` [Example 202, 3-{[5-(2-Adamantan-1-yl-ethyl)-2-(2,6,6-trimethyl-cyclohex-1-enylmethyl)-1H-imidazole-4-carbonyl]-amino)-benzoic Acid], the Kb in experiment [1] was 28.8 nM. The Ki in experiment [2] is 112 nM.

Take `O=C(O)c1cccc(NC(=O)c2nc(-c3c(Cl)cccc3Cl)[nH]c2CCC23CC4CC(CC(C4)C2)C3)c1` [Example 148, 3-{[5-(2-Adamantan-1-yl-ethyl)-2-(2,6-dichlorophenyl)-1H-imidazole-4-carbonyl]-amino}-benzoic Acid]: the Kb in experiment [1] is 53.7 nM. In experiment [2], the Ki is 102 nM.

As for `O=C(O)c1cc(NC(=O)c2[nH]c(-c3ccccc3)nc2CCC23CC4CC(CC(C4)C2)C3)cc(C(=O)O)c1` [Example 46, 5-{[5-(2-Adamantan-1-yl-ethyl)-2-phenyl-1H-imidazole-4-carbonyl]-amino}-isophthalic Acid], the Kb in experiment [1] is 2510 nM. Besides, in experiment [2], the Ki was 646 nM.

Regarding `O=C(O)c1cccc(NC(=O)c2[nH]c(C3CC3)nc2CCC23CC4CC(CC(C4)C2)C3)c1` [Example 197, 3-{[5-(2-Adamantan-1-yl-ethyl)-2-cyclopropyl-1H-imidazole-4-carbonyl]-amino}-benzoic Acid], the Kb in experiment [1] is 70.8 nM. In experiment [2], the Ki was 776 nM.

Consider `O=C(O)c1cccc(NC(=O)c2nc(C3CCCCC3)[nH]c2CCC2CCCCC2)c1` [Example 168, 3-{[2-Cyclohexyl-5-(2-cyclohexyl-ethyl)-1H-imidazole-4-carbonyl]-amino}-benzoic Acid], for which the Kb in experiment [1] was 64.6 nM. Also, the Ki in experiment [2] is 245 nM.

Regarding `O=C(O)c1cccc(NC(=O)c2nc(C3CC4C=CC3C4)[nH]c2CCC23CC4CC(CC(C4)C2)C3)c1` (racemic) [Example 116, (±)-endo-3-{[5-(2-Adamantan-1-yl-ethyl)-2-bicyclo[2.2.1]hept-5-ene-2-yl-1H-imidazole-4-carbonyl]-amino}-benzoic Acid], the Kb in experiment [1] was 2.14 nM. Also, the Ki in experiment [2] was 13.5 nM.

In the case of `O=C(O)c1cc(NC(=O)c2cc(-c3ccc4ccccc4c3)[nH]c2CC23CC4CC(CC(C4)C2)C3)cc(C(=O)O)c1` [Example 4, 5-[(2-Adamantan-1-ylmethyl-5-naphthalen-2-yl-1H-pyrrole-3-carbonyl)-amino]-isophthalic Acid], the Kb in experiment [1] is 1620 nM. Moreover, the Ki in experiment [2] is 87.1 nM.

As for `Cc1ccc(C(=O)O)cc1NC(=O)c1nc(C2CCCCC2)[nH]c1CCC12CC3CC(CC(C3)C1)C2` [Example 252, 3-{[5-(2-Adamantan-1-yl-ethyl)-2-cyclohexyl-1H-imidazole-4-carbonyl]-amino}-4-methylbenzoic Acid], the Kb in experiment [1] is 263 nM. For the same compound, in experiment [2], the Ki is 170 nM.

As for `CN1CCC[C@@H]1c1nc(C(=O)Nc2cccc(C(=O)O)c2)c(CCC23CC4CC(CC(C4)C2)C3)[nH]1` [Example 143], the Kb in experiment [1] is 60.3 nM. In addition, the Ki in experiment [2] is 191 nM.

`Cc1ccccc1-c1nc(C(=O)Nc2ccc(F)c(C(=O)O)c2)c(CCC23CC4CC(CC(C4)C2)C3)[nH]1` [Example 105, 5-{[5-(2-Adamantan-1-yl-ethyl)-2-o-tolyl-1H-imidazole-4-carbonyl]-amino}-2-fluoro-benzoic Acid]: in experiment [1], the Kb is 87.1 nM. Besides, in experiment [2], the Ki was 46.8 nM.

On to `O=C(O)c1cccc(NC(=O)c2nc(-c3cccc(O)c3)[nH]c2CCC23CC4CC(CC(C4)C2)C3)c1` [Example 62, 3-{[5-(2-Adamantan-1-yl-ethyl)-2-(3-hydroxy-phenyl)-1H-imidazole-4-carbonyl]-amino}-benzoic Acid], for which the Kb in experiment [1] is 1200 nM. The Ki in experiment [2] is 389 nM.

With `Cc1ccc(NC(=O)c2nc(C3CCCCC3)[nH]c2CCC2C3CC4CC(C3)CC2C4)cc1C(=O)O` (stereo not shown) [Example 173, 5-{[5-(2-Adamantan-2-yl-ethyl)-2-cyclohexyl-1H-imidazole-4-carbonyl]-amino}-2-methyl-benzoic Acid], in experiment [1], the Kb was 4.79 nM. In addition, the Ki in experiment [2] was 6.17 nM.
